Format in all cases: biochemical
One assay has as its target T1, Purified chicken MLCK (Gallus gallus, UniProt P11799).
T1 construct: from tissue
Put plainly: MLCK kinase assay (Kinase-Glo ATP consumption). The note with it: 1 μM ATP; read-out: Kinase Inhibiting Activity (IC50) MLCK. The method, then:
Purified chicken MLCK (purified by the method of M. Anne Conti, et al.: Method in Enzymol. 196, 34-47) was used to evaluate its activity to phosphorylate a substrate peptide (AKRPQRATSNVFS, Sigma).
(§1) In a system of the total volume of 50 μL, the reaction of the above-mentioned enzyme (100 ng) was carried out at room temperature for 80 minutes in the presence of 20 mM of Tris-HCl (pH 7.5), 5 mM of magnesium chloride, 0.2 mM of calcium chloride, 0.02 mg/mL of BSA, 8 μg/mL of purified bovine brain calmodulin (Sigma), 50 μM of the above peptide, and 1 μM of ATP. After the kinase reaction, the luminescence intensity corresponding to the amount of ATP in the reaction system was measured using a luciferase reagent (Kinase-Glo Luminescent Kinase Assay kit, Promega) with a chemiluminescence measurement apparatus (MicroLumat, Berthold Technologies). The amount of ATP consumed by the phosphorylation reaction was calculated by comparison with the luminescence intensity in the system when the kinase reaction was not carried out.
(§2) With this system, the kinase reaction was carried out in the presence of a compound at various concentrations, and the IC50 value of the compound was determined based on the resulting compound concentration-response curve for ATP consumption.

The target of assay [1] is T2, Purified rat CaMKII (Rattus norvegicus, UniProt P11275).
T2 construct: purchased Upstate
Put plainly: CaMKII kinase assay (Kinase-Glo ATP consumption). The note with it: 1 μM ATP; read-out: Kinase Inhibiting Activity (IC50) CaMKII. The method, then: (§3) Purified rat CaMKII (containing CaMKIIα and small amounts of β, γ, and δ isoforms, Upstate) was used to evaluate its activity to phosphorylate a substrate peptide (KKALRRQETVDAL, Upstate).
(§4) In a system of the total volume of 50 μL, the reaction of the above-mentioned enzyme (33 ng) was carried out at room temperature for 60 minutes in the presence of 50 mM of Tris-HCl (pH7.5), 10 mM of magnesium chloride, 2 mM of calcium chloride, 0.04 mg/mL of BSA, 16 μg/mL of purified bovine brain calmodulin (Sigma), 0.5 mM of DTT, 50 µM of the above peptide, and 1 μM of ATP. After the kinase reaction, the luminescence intensity corresponding to the amount of ATP in the reaction system was measured using a luciferase reagent (Kinase-Glo Luminescent Kinase Assay kit, Promega) with a chemiluminescence measurement apparatus (MicroLumat, Berthold Technologies). The amount of ATP consumed by the phosphorylation reaction was calculated by comparison with the luminescence intensity in the system when the kinase reaction was not carried out.
as §2
(§5) The ROCKII-inhibiting activity of a compound to be tested was defined as 1.0, and the inhibitory activities of the compound against kinases (PKA, PKG, CaMKII, and AuroraA) other than ROCKII were calculated as relative ratios to the ROCKII-inhibiting activity, based on the IC50 values calculated using the above-described evaluation system.

Assay [2] deals with Purified rat CaMKII. In words: CaMKII kinase assay (Kinase-Glo ATP consumption). The note with it: relative ratio to ROCKII (=1.0), based on IC50 values. The procedure: as §3, §4, §2, §5
For assay [3], the target named is T3, Recombinant human AuroraA (Homo sapiens, UniProt O14965).
T3 construct: purchased Upstate
T3 sequence (O14965 1-403): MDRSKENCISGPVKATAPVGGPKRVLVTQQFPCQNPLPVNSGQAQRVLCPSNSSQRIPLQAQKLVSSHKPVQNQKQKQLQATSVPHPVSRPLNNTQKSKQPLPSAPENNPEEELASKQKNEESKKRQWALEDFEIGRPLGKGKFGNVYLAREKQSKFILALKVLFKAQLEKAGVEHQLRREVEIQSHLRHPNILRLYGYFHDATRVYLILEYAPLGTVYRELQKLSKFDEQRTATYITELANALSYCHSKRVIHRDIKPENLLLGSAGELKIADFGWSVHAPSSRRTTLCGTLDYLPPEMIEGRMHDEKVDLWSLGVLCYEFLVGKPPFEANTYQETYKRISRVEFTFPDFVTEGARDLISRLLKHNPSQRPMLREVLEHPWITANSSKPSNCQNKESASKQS
Put plainly: AuroraA kinase assay (Kinase-Glo ATP consumption). Details: key to Realative Inhibitory Activity AuroraA: ratio relative to ROCKII-inhibiting activity defined as 1.0 (from IC50s). As to conditions: for IC50: 1 μM ATP, read-out: Kinase Inhibiting Activity (IC50) AuroraA; for Realative Inhibitory Activity AuroraA: relative ratio to ROCKII (=1.0), based on IC50 values. The method, then: Recombinant human AuroraA (Upstate) was used to evaluate its activity to phosphorylate a substrate peptide (LRRASLG, Promega) was evaluated.
as §1, with “enzyme (40” for “enzyme (100”, “of 40” for “of 20”, “of MOPS-NaOH” for “of Tris-HCl”, “7.5), 20” for “7.5), 5”, “chloride, 200” for “chloride, 0.2 mM of calcium chloride, 0.02 mg/mL of BSA, 8 μg/mL of purified bovine brain calmodulin (Sigma), 50”
as §2, §5

Another assay has as its target T4, Recombinant mouse MKK4 (Mus musculus, UniProt P47809).
T4 construct: from 34th to 397th amino acids; purchased Upstate
T4 sequence (P47809 34-397): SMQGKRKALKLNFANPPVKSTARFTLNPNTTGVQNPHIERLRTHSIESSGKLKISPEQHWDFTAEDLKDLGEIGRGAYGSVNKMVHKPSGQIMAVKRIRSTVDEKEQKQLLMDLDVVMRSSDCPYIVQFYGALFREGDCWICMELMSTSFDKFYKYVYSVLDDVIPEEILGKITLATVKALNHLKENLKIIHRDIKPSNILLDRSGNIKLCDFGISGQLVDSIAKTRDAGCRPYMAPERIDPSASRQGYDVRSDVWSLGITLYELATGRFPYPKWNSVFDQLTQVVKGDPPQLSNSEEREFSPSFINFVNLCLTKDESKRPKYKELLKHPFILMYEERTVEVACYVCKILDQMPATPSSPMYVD
Put plainly: MKK4 kinase assay (Kinase-Glo ATP consumption). As to conditions: 1 μM ATP; read-out: Kinase Inhibiting Activity (IC50) MKK4. The method, then: as §1, with “enzyme (400” for “enzyme (100”, “of 25” for “of 20”, “7.5), 10” for “7.5), 5”, “chloride,” for “chloride, 0.2 mM of calcium chloride,”, “of” for “of BSA, 8 μg/mL of purified bovine brain calmodulin (Sigma), 50 μM of”, “above JNK1α1,” for “above peptide,”
as §2

As to “2-(S)-1-(4-fluoroisoquinoline-5-sulfonyl)-4-glycyl-2-methylhomopiperazine dihydrochloride [Example 1]”, the IC50 at Purified chicken MLCK was above 100 µM; on Purified rat CaMKII [1], 22.9 µM; in assay [3], 84.5 µM; at Recombinant mouse MKK4, above 100 µM. Besides, the “Realative Inhibitory Activity CaMKII” value in the assay with Purified rat CaMKII [2] was determined as 763. For the same molecule, the “Realative Inhibitory Activity AuroraA” value in assay [3] is 2817.
Consider `CNCC(=O)N1CCCN(S(=O)(=O)c2cccc3cncc(F)c23)[C@@H](C)C1.Cl.Cl` [Example 2, 2-(S)-1-(4-fluoroisoquinoline-5-sulfonyl)-2-methyl-4-(N-methylglycyl)homopiperazine dihydrochloride], for which the IC50 on Purified chicken MLCK was above 100 µM; on Purified rat CaMKII [1] it was 26.7 µM; in assay [3], 92.2 µM; at Recombinant mouse MKK4, above 100 µM. In addition, in the assay on Purified rat CaMKII [2], the “Realative Inhibitory Activity CaMKII” value is 890. Moreover, the “Realative Inhibitory Activity AuroraA” value in assay [3] was above 3000.

The values are drawn from patent US20090306053A1, “Highly selective rho-kinase inhibitor” (priority 2005, published 2009).
